Source: US20250049930A1, “PROTAC MOLECULES TARGETING FOXP3 AND USES THEREOF” (CEDARS-SINAI MEDICAL CENTER, priority 2022, published 2025)
pKd: −log10 of the molar value. Residues, ends and D or L forms follow the SMILES beside them. *: point of attachment. X1 = O=C1CCC(N2C(=O)c3cccc(*)c3C2=O)C(=O)N1; PEG4 = NCCOCCOCCOCCOCCC(=O)O

How the values were obtained:
[1] = test system: CD4+ and CD8+ lymphocytes; experiment: Ex vivo restimulation of splenocytes/lymph nodes from treated tumor-bearing mice with CA9 peptide, flow cytometry; format: in vivo, Balb/C mice; settings: spleen and lymph nodes harvested on day 28, restimulated ex vivo with CA9 peptide
Experimental: FIGS. 4A-4D depict that PF enhanced the antitumor immunity provided by αPD1 or mTOR inhibition in mice. Mice tumors were established by injecting RENCA-CA9 cells subcutaneously in the flank (day 0) of Balb/C mice (6-8 mice per group). PF was administered i.p., twice a week, throughout the experiment, starting on day 10 (FIGS. 4A and 4C). αPD1 was administered i.p., twice a week, throughout the experiment, starting on days 5 (FIG. 4A). Splenocytes were harvested, and restimulated ex vivo with mouse CA9 peptide. The splenocytes were assessed by flow cytometry for Granzyme B, IFNγ or TNFα after gating on CD4 or CD8 (FIG. 4B). In a similar mouse tumor growth experiment, temsirolimus was administered i.p. on day 10, every other day, for 14 days (FIG. 4C). Similar to FIG. 4B, splenocytes were harvested, restimulated and analyzed (FIG. 4D). Representative results are shown for experiments conducted at least twice. […]
FIGS. 6A-6C depict that PF enhances immune activation and CD8+ memory lymphocyte formation. […] Spleen and lymph nodes were harvested on day 28 and restimulated ex vivo with CA9 peptide and assessed by flow cytometry (FIGS. 6B and 6C). CD8+ lymphocytes treated with PF had increased activation as measured by IFNγ or TNFα (FIG. 6B). […]
To assess T cells in mice, CD4+ FoxP3+ cells from serial peripheral blood draws were assessed by flow cytometry. […]

[2] = target: ternary complex consisting of cereblon, FoxP3, and P-FoxP3 (Homo sapiens, UniProt Q96SW2+Q9BZS1); experiment: SPR assay, ternary complex cooperativity; format: binding
Experimental: The SPR assay for ternary complex cooperativity was performed by BOC Sciences who provided the following details: Various concentrations of cereblon were dissolved in water and manually printed onto the 47 nm gold-coated PlexArray Nanocapture Sensor Chip (Plexera Bioscience, Seattle, WA) at 40% humidity. Each concentration was printed in replicate, and each spot contained […] of sample solution. The chip was incubated overnight in 80% humidity at 4° C., and rinsed with 10×PBST for 10 minutes, 1×PBST for 10 minutes, and deionized water twice for 10 minutes. The chip was then blocked with 5% non-fat milk in water overnight, washed as before, and then dried under a stream of nitrogen.
SPR imaging measurements were performed with PlexAray HT (Plexera Bioscience, Seattle, WA, US). Buffers and samples were injected by a non-pulsatile piston pump into the 30 μL flow cell. […] The signal changes after binding and washing (in AU) are recorded as the assay value. Selected protein-grafted regions in the SPR images were analyzed, and the average reflectivity variations of the chosen areas were plotted as a function of time. Real-time binding signals were recorded and analyzed by Data Analysis Module (DAM, Plexera Bioscience, Seattle, WA, US). […]

RENCA cells = experiment: RENCA cell growth in vitro; format: cell-based, mouse; settings: 0.002, 0.02, 0.2, or 2 μM, 48 hours
Experimental: That is, the tumor in the P60 treated tumor grew at the same rate as the saline treated mice. Further, RENCA cells (20×10^4/well) were seeded in 12 well plates and treated with PF or PC at 0.002, 0.02, 0.2, or 2 μM. […] The first approach involved depleting CD8+ lymphocytes, which are known to mediate antitumor immunity.

Sequence of ternary complex consisting of cereblon, FoxP3, and P-FoxP3 (Q96SW2 whole entry): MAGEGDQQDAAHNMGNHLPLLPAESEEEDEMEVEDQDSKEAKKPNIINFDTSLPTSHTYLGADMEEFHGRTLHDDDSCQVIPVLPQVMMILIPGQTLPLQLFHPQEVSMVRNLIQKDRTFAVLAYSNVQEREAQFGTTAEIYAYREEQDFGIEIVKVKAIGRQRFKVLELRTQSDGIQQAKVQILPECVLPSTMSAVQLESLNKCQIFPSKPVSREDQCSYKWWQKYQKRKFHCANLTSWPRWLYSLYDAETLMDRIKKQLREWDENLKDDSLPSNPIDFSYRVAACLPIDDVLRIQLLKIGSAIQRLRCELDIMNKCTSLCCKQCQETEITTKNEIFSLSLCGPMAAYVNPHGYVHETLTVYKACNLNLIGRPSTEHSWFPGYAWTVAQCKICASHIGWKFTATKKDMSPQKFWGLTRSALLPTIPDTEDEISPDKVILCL
Sequence of ternary complex consisting of cereblon, FoxP3, and P-FoxP3 (Q9BZS1 whole entry): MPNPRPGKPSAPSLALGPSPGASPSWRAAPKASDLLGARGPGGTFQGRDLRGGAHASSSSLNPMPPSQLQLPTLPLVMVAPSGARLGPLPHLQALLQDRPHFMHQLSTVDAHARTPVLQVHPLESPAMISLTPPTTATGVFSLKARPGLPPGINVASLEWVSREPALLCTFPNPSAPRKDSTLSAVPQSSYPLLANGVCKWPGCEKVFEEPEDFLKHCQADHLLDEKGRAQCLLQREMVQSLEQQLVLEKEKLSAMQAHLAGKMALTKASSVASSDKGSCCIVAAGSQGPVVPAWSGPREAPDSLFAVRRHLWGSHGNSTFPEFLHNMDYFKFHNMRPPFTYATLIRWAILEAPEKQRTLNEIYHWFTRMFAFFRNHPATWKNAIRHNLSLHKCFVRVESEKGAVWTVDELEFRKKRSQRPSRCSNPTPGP

pKd ([2]; SPR, cereblon printed on chip, 25° C., complex of cereblon, P-FoxP3 and recombinant FoxP3, read-out: Equilibrium dissociation constant, KD ternary): 6.36
Cooperativity, a=KD binary/KD ternary ([2]; a>1 positively cooperative, a=1 non-cooperative, a<1 negatively cooperative): 2.27
Structure (SMILES): CSCC[C@H](NC(=O)[C@H](C)NC(=O)[C@H](Cc1ccccc1)NC(=O)[C@H](Cc1ccccc1)NC(=O)[C@@H]1CCCN1C(=O)[C@H](Cc1c[nH]c2ccccc12)NC(=O)[C@H](CCSC)NC(=O)[C@H](CCCCN)NC(=O)[C@H](CCCNC(=N)N)NC(=O)[C@H](Cc1ccccc1)NC(=O)[C@H](CO)NC(=O)[C@H](CCC(N)=O)NC(=O)[C@H](Cc1ccccc1)NC(=O)[C@H](CC(=O)O)NC(=O)[C@H](CCCNC(=N)N)NC(=O)CCOCCOCCOCCOCCNc1cccc2c1C(=O)N(C1CCC(=O)NC1=O)C2=O)C(=O)O (stereo partly shown) [PF, Pomalidomide-PEG4-RDFQSFRKMWPFFAM] ({X1-PEG4}-RDFQSFRKMWPFFAM-OH)
memory markers (CD62L, CD44 and Eomes) in CD8+ cells [1]: displayed a memory phenotype with increase in CD62L, CD44 and Eomes expression
RENCA growth in vitro (cell count) (RENCA cells): did not alter RENCA growth in vitro
